Test results as given in patent US20240254135A1, “POLYPHENOL COMPOUNDS” (Epirium Bio Inc., priority 2022, published 2024).

Columns and labels:
[1] = biological target: T1, mitochondrial ATP synthase (Mus musculus, UniProt P56480+Q03265); assay: Maximal ATP hydrolysis capacity in frozen heart mitochondria; type: biochemical; details: frozen heart mitochondria, different concentrations in the assay media
T1 construct: from tissue; host or cells: mouse heart, isolated mitochondria (fresh or frozen)
Method: (§1) ATP hydrolysis capacity or state 4 acidification was measured using Seahorse XF96 as described in Divakaruni et al. (2018) Anal Biochem 552:60-65 and Acin-Perez et al. (2021) Life 11(9):949, in MAS (70 mM Sucrose, 220 mM Mannitol, 5 mM KH2PO4, 5 mM MgCl2, 1 mM EGTA, 2 mM HEPES; pH 7.2). Plates were loaded with 0.75-1.5 μg of mouse heart mitochondria, or 25 μg of cell lysate. Cell lysates were prepared by subjecting the samples to 4 cycles of free thaw (liquid nitrogen—37° C. water bath) before measuring protein concentration. When assessing compounds effect on respirometry, the compounds were added in MAS after sample centrifugation. Initial respiration of the samples was sustained by the addition of 5 mM succinate+2 μM rotenone in the MAS after centrifugation. Injections were performed at the following final concentration in the well: Antimycin A (2 μM), oligomycin (5 μM), FCCP (1 μM), ATP (20 mM). To assess maximal ATP concentration, ATP was injected consecutively.
An additional assay was developed to determine the maximal ATP hydrolysis capacity in frozen mitochondria. Maximal ATP hydrolytic capacity was assessed in frozen heart mitochondria where mitochondrial respiration is inhibited by Antimycin A and maximal ATP hydrolysis is driven by co-injection of FCCP and ATP, followed by inhibition in the presence of oligomycin.

[2] = biological target: T1, mitochondrial ATP synthase; assay: ATP synthesis (oxygen consumption, Seahorse XF96) in fresh heart mitochondria; type: biochemical; details: fresh heart mitochondria (FIG. 1, FIG. 2)
From the text: (§2) To assess whether the fraction of synthetic and reverse hydrolytic activities of mitochondrial ATP synthase can be measured in the same preparation, a protocol was developed to monitor changes in oxygen consumption and proton release in response to changes in mitochondrial ATP synthase activity. The proton released and the concomitant changes in the pH can be monitored using the ECAR (extracellular acidification) channel in the Agilent Seahorse XF analyzer using isolated mitochondria, to ensure that the changes in pH cannot be attributed to glycolysis or other contributors to ECAR.
(§3) Mice were anesthetized with isoflurane followed by a cervical dislocation, and the heart was immediately removed and placed in ice cold relaxation buffer (5 mM sodium pyrophosphate, 100 mM KCl, 5 mM EGTA, 5 mM HEPES; pH 7.4). The heart was squeezed with tweezers to remove blood, minced with scissors, and then placed in a glass-glass Dounce homogenizer with 3 mL of HES homogenization buffer (250 mM sucrose, 5 mM HEPES, 1 mM EDTA; pH to 7.2, adjusted with KOH). The heart tissue was homogenized first with the loose pestle and followed by the tight pestle. The homogenized tissue was placed in a pre-chilled 15 ml conical tube and centrifuged at 900×g (4° C.) for 10 minutes (min). The supernatant was removed, placed in a new tube and centrifuged again at 900×g for 10 min. The supernatant was then transferred to 2 mL microcentrifuge tubes and centrifuged at 10,000×g (4° C.) for 10 min. The mitochondrial pellets were re-suspended in ice cold HES buffer and mitochondrial protein was measured with a BCA assay (Pierce). The concentrated mitochondrial pellet was stored on ice.
Heart mitochondria (0.75-1.5 μg) were loaded into a Seahorse XF96 microplate in 20 μL of MAS (70 mM Sucrose, 220 mM Mannitol, 5 mM KH2PO4, 5 mM MgCl2, 1 mM EGTA, 2 mM HEPES; pH 7.2) plus 1% free fatty acid BSA containing substrates. The loaded plate was centrifuged at 2,000×g for 5 min at 4° C. […]
Oxygen consumption was measured in isolated fresh intact mitochondria from mouse heart, as oxygen consumption is linked to maximal ATP synthesis and proton release when mitochondria are respiring either in the presence of substrates and ADP (ATP synthesizing mitochondria or state 3) or in the presence of substrates but not ADP (state 4). […]
OCR and ECAR were measured in a Seahorse XF96 analyzer under basal conditions as well as after injection of 2 μM oligomycin, two sequential additions of 1.5 μM FCCP, followed by 1 μM rotenone with 2 μM antimycin A. Respiratory parameters were calculated according to standard protocols, and all rates were corrected for non-mitochondrial respiration/background signal by subtracting the oxygen consumption rate insensitive to rotenone plus antimycin A.

[3] = biological target: T1, mitochondrial ATP synthase; assay: ATP hydrolysis (proton release/ECAR, Seahorse XF96) in fresh heart mitochondria; type: biochemical; details: fresh heart mitochondria (FIG. 1, FIG. 2)
From the text: as §2, §3
Heart mitochondria (0.75-1.5 μg) were loaded into a Seahorse XF96 microplate in 20 μL of MAS (70 mM Sucrose, 220 mM Mannitol, 5 mM KH2PO4, 5 mM MgCl2, 1 mM EGTA, 2 mM HEPES; pH 7.2) plus 1% free fatty acid BSA containing substrates. The loaded plate was centrifuged at 2,000×g for 5 min at 4° C. (no brake) and an additional 130 μL of MAS was added to each well. When assessing compounds effect on respirometry, the compounds were added at this point at the indicated concentration in MAS buffer. To avoid disrupting mitochondrial adherence to the bottom of the plate, MAS was added using a multichannel pipette pointed at a 45° angle to the top of the well-chamber, as instructed by the manufacturer. Substrate concentrations in the well when assay was starting in state 4 were as follow: (i) 5 mM pyruvate+5 mM malate or ii) 5 mM succinate+2 μM rotenone. Substrate concentrations in the well when assay was starting in state 3 were as follow: (i) 5 mM pyruvate+5 mM malate+4 mM ADP or ii) 5 mM succinate+2 μM rotenone+4 mM ADP. Injections were performed as indicated in the figure descriptions at the following final concentration in the well: oligomycin (3.5 μM), FCCP (4 μM), Antimycin A (2 μM). Compounds were added at the indicated concentration.
as §1, with “consecutively. […]” for “consecutively.”

PGC-1α = assay: In vitro PGC-1α expression in differentiated C2C12 cells (cell ELISA); type: cell-based; details: 1 mM
Method: Culture conditions: DMEM containing 25 mM glucose with 10% FBS supplementation; grown at 37° C. and 5% CO2.
Drugs: (+)Epicatechin, AICAR (direct activator of AMPK).
Assay Conditions: C2C12 cells were cultured in DMEM supplemented in 10% FBS up to 80% confluence. The cells were further trypsinized and seeded into a 96 well plate at a density of 5000 cells/well (well volume—100 μL) (Day 0). Following attachment, the cells were allowed to reach 80-90% confluence in the plate (typically 48 hours post seeding) and further differentiated using DMEM+2% Horse Serum (200 μL/well). The media was changed every day or at least every alternate day for 5 days to allow myoblasts to differentiate into myotubes. On day 7 (post seeding), the cells were treated with standards and test compounds for PGC-1 α assay.
PGC-1α assay: For the detection of PGC-1α, the cells were incubated with 0.5 μg/ml primary antibody (Merck, WH0010891M3) in PBS-T containing 5% BSA at 4° C. overnight. The cells were then washed three times with PBS-T for 5 minutes and incubated with 1:1000 dilution secondary antibody (Anti-rabbit IgG, HRP-linked Antibody, Cell Signaling) in PBS-T with 1% BSA for 1 hour at RT. Cells were washed three times with PBS-T for 5 minutes The cells were incubated with 100 μl TMB substrate solution for 30 minutes and the reaction was stopped with 100 μl of 2N H2SO4. […] (For plate optical density calculations, a background correction was taken at 540 nm). The final PGC-1α activation % is average of activation of 6 replicates.

| Structure (SMILES) | inhibition of ATP hydrolysis [1] | change in ATP synthesis [2] | changes in ATP hydrolysis [3] | % Activity (PGC-1α expression) (PGC-1α; Table 4, differentiated C2C12 cells, OD at 5 minutes) [%] | % Activity (PGC-1α expression) (PGC-1α; Table 5, differentiated C2C12, 5000 cells/well, DMSO = 100) [%] | % Activity (PGC-1α expression) (PGC-1α; Table 6, C2C12 cells, 5000 cells/well) [%] | % Activity (PGC-1α expression) (PGC-1α; Table 7, C2C12 cells, 5000 cells/well, DMSO = 100) [%] | % Activity (PGC-1α expression) (PGC-1α; Table 8, C2C12 cells, 5000 cells/well, DMSO = 100) [%] |
| --- | --- | --- | --- | --- | --- | --- | --- | --- |
| CC[C@H]1/C=C/C=C/C[C@@H](C)[C@H](O)[C@@](C)(O)C(=O)[C@@H](C)[C@H](O)[C@@H](C)C(=O)[C@@H](C)[C@H](O)[C@@H](C)/C=C/C(=O)O[C@@H]2[C@H](C)[C@H](CC1)O[C@]1(CC[C@H](C)[C@H](C[C@@H](C)O)O1)[C@H]2C [Oligomycin, oligomycin, reference compound] | dose dependent inhibition | worked as expected | worked as expected |  |  |  |  |  |
| NC(=O)c1ncn([C@@H]2O[C@H](CO)[C@@H](O)[C@H]2O)c1N [AICAR, 5-aminoimidazole-4-carboxamide-1-β-D-ribofuranoside] |  |  |  | 128 | 122 | 136 | 122 | 140 |
